Experimental data published in patent publication US4452807A, “(R,S)-1-(3-Hydroxy-4-methoxybenzoyl)-3-hydroxy-2-pyrrolidinone intermediates therefor and use for treating cerebral insufficiency” (Hoffmann-La Roche Inc., priority 1981, dated 1984).

Experiment: Acute toxicity, single oral administration to mice
Details: mouse, in vivo, p.o.
Excerpt: Moreover, the Table contains data concerning the acute toxicity, that is, LD50 in mg/kg in the case of single oral administration to mice.

`COc1ccc(C(=O)N2CCC(O)C2=O)cc1O` (racemic) [R,S, (R,S)-1-(3-hydroxy-4-methoxybenzoyl)-3-hydroxy-2-pyrrolidinone] and `COc1ccc(C(=O)N2CC[C@@H](O)C2=O)cc1O` [R, (R)-1-(3-hydroxy-4-methoxybenzoyl)-3-hydroxy-2-pyrrolidinone] cannot be ordered by LD50: over 5000 mg/kg for the first, over 5000 mg/kg for the second.

Molecule `COc1ccc(C(=O)N2CC[C@H](O)C2=O)cc1O` [S, (S)-1-(3-hydroxy-4-methoxybenzoyl)-3-hydroxy-2-pyrrolidinone] has an LD50 of over 4000 mg/kg.
